Among the data in article PMC7962117, “The Complex Structure of Protein AaLpxC from Aquifex aeolicus with ACHN-975 Molecule Suggests an Inhibitory Mechanism at Atomic-Level against Gram-Negative Bacteria” (Molecules, 2021) are Kd values, retold here.

Holding throughout (test): isothermal titration calorimetry
What all share (format): binding
On the technique in general: ITC needs no label: the signal is the heat of the interaction.

Experiment [1] deals with T1, AaLpxC (Aquifex aeolicus, UniProt O67648, E185A).
T1 construct: gene lpxC; codon-optimised gene in pET-21a (NdeI/XhoI), E. coli BL21(DE3); approx. 32 kDa; Zn2+ enzyme; last five residues LTRLE disordered in crystal
T1 sequence (O67648 1-271 E185A): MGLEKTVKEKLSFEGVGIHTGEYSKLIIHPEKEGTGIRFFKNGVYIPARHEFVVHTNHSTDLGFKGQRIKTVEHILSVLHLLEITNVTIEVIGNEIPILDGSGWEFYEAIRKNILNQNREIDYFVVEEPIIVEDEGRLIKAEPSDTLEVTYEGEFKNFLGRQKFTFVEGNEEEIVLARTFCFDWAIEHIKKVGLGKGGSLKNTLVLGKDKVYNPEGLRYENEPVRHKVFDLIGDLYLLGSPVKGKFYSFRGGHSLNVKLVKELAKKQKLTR
From the text:
(§1) isothermal titration calorimetry on AaLpxC

Experiment [2] deals with T2, AaLpxC (Aquifex aeolicus, UniProt O67648, F180A).
T2 construct: gene lpxC; codon-optimised gene in pET-21a (NdeI/XhoI), E. coli BL21(DE3); approx. 32 kDa; Zn2+ enzyme; last five residues LTRLE disordered in crystal
T2 sequence (O67648 1-271 F180A): T1 sequence (O67648 1-271 E185A) with F180A, A185E
Description: as §1

The target of experiment [3] is T3, AaLpxC (Aquifex aeolicus, UniProt O67648).
T3 construct: gene lpxC; codon-optimised gene in pET-21a (NdeI/XhoI), E. coli BL21(DE3); approx. 32 kDa; Zn2+ enzyme; last five residues LTRLE disordered in crystal
T3 sequence (O67648 1-271): T1 sequence (O67648 1-271 E185A) with A185E
Description: as §1

The target in experiment [4] is T4, AaLpxC (Aquifex aeolicus, UniProt O67648, S59A).
T4 construct: gene lpxC; codon-optimised gene in pET-21a (NdeI/XhoI), E. coli BL21(DE3); approx. 32 kDa; Zn2+ enzyme; last five residues LTRLE disordered in crystal
T4 sequence (O67648 1-271 S59A): T1 sequence (O67648 1-271 E185A) with S59A, A185E
Description: as §1

The target in experiment [5] is T5, AaLpxC (Aquifex aeolicus, UniProt O67648, E73A).
T5 construct: gene lpxC; codon-optimised gene in pET-21a (NdeI/XhoI), E. coli BL21(DE3); approx. 32 kDa; Zn2+ enzyme; last five residues LTRLE disordered in crystal
T5 sequence (O67648 1-271 E73A): T1 sequence (O67648 1-271 E185A) with E73A, A185E
Description: as §1

Experiment [6] addresses T6, AaLpxC (Aquifex aeolicus, UniProt O67648, I189A).
T6 construct: gene lpxC; codon-optimised gene in pET-21a (NdeI/XhoI), E. coli BL21(DE3); approx. 32 kDa; Zn2+ enzyme; last five residues LTRLE disordered in crystal
T6 sequence (O67648 1-271 I189A): T1 sequence (O67648 1-271 E185A) with A185E, I189A
Description: as §1

The target of experiment [7] is T7, AaLpxC (Aquifex aeolicus, UniProt O67648, T203A).
T7 construct: gene lpxC; codon-optimised gene in pET-21a (NdeI/XhoI), E. coli BL21(DE3); approx. 32 kDa; Zn2+ enzyme; last five residues LTRLE disordered in crystal
T7 sequence (O67648 1-271 T203A): T1 sequence (O67648 1-271 E185A) with A185E, T203A
Description: as §1

The target of experiment [8] is T8, AaLpxC (Aquifex aeolicus, UniProt O67648, I186A).
T8 construct: gene lpxC; codon-optimised gene in pET-21a (NdeI/XhoI), E. coli BL21(DE3); approx. 32 kDa; Zn2+ enzyme; last five residues LTRLE disordered in crystal
T8 sequence (O67648 1-271 I186A): T1 sequence (O67648 1-271 E185A) with A185E, I186A
Description: as §1

The target of experiment [9] is T9, AaLpxC (Aquifex aeolicus, UniProt O67648, H19A).
T9 construct: gene lpxC; codon-optimised gene in pET-21a (NdeI/XhoI), E. coli BL21(DE3); approx. 32 kDa; Zn2+ enzyme; last five residues LTRLE disordered in crystal
T9 sequence (O67648 1-271 H19A): T1 sequence (O67648 1-271 E185A) with H19A, A185E
Description: as §1

Experiment [10] concerns the target T10, AaLpxC (Aquifex aeolicus, UniProt O67648, K227A).
T10 construct: gene lpxC; codon-optimised gene in pET-21a (NdeI/XhoI), E. coli BL21(DE3); approx. 32 kDa; Zn2+ enzyme; last five residues LTRLE disordered in crystal
T10 sequence (O67648 1-271 K227A): T1 sequence (O67648 1-271 E185A) with A185E, K227A
Description: as §1

The target of experiment [11] is T11, AaLpxC (Aquifex aeolicus, UniProt O67648, I18A).
T11 construct: gene lpxC; codon-optimised gene in pET-21a (NdeI/XhoI), E. coli BL21(DE3); approx. 32 kDa; Zn2+ enzyme; last five residues LTRLE disordered in crystal
T11 sequence (O67648 1-271 I18A): T1 sequence (O67648 1-271 E185A) with I18A, A185E
Description: as §1

Substitutions are numbered along the chain they refer to.

Consider `CC(C)(N)[C@H](NC(=O)c1ccc(C#CC#C[C@@H]2C[C@H]2CO)cc1)C(=O)NO` [ACHN-975], for which the Kd (in general, the free concentration of one partner at which half of the binding sites on the other are occupied at equilibrium, for simple one-to-one binding) at AaLpxC [1] is 60 ± 30 nM; at AaLpxC [2], 90 ± 70 nM; on AaLpxC [3], 400 ± 100 nM; at AaLpxC [4], 400 ± 100 nM; on AaLpxC [5], 70 ± 50 nM; at AaLpxC [6] it was 100 ± 90 nM. For the same compound, the Kd on AaLpxC [7] is 2000 ± 1400 nM; at AaLpxC [8], 200 ± 90 nM; at AaLpxC [9], 400 ± 200 nM; on AaLpxC [10] it was 100 ± 80 nM; on AaLpxC [11] it was 400 ± 300 nM.
